# Test results taken from PMC6738096 (British Journal of Cancer, 2019).
# Assay: Phase 1 dose-escalation trial: safety and tolerability (TEAEs, SAEs, DLT, MTD, RP2D)
# Protocol: Endpoints included the incidence of DLTs (defined in the ‘Safety' section) in the first 28-day treatment cycle (cycle 1), the frequency and severity of adverse events (AEs) and serious AEs (SAEs) and changes in laboratory values, vital signs, physical examination findings and Eastern Cooperative Oncology Group (ECOG) performance status (PS).
# The starting dose was 30 mg, which was determined by review of nonclinical toxicokinetic assessments. A treatment cycle comprised 28 days in the absence of disease progression or unacceptable toxicity. Patients received starting doses ranging from 30 mg once every 24 hours (Q24h) to 480 mg Q24h, and escalation proceeded based on a 3 + 3 design.
# The subsequent cohort started at a reduced dosing regimen. Additional dosing schedules were once every 12 hours (Q12h) at 30 and 60 mg and once every 8 hours (Q8h) at 20 and 40 mg.
# Toxicities were graded and recorded according to NCI CTCAE version 4.03. Patients were assessed for DLTs during the first 28-day cycle. A DLT was defined as any grade ≥ 3 nonhaematologic toxicity, according to NCI CTCAE version 4.03.
structure (smiles),measurement,setting,value
CC(C)NC(=O)[C@H]1CC[C@@H](n2c(NC(=O)c3ccc(F)cc3)nc3ccc(CN4CCC(C(C)(C)O)CC4)cc32)CC1 [TSR-011],Drug-related TEAE: Abnormal dreams,20 mg Q8h (n = 16),1 (6.3) n (%)
same,Drug-related TEAE: Anaemia,20 mg Q8h (n = 16),0 n (%)
same,Drug-related TEAE: Asthenia,20 mg Q8h (n = 16),1 (6.3) n (%)
same,Drug-related TEAE: Constipation,20 mg Q8h (n = 16),2 (12.5) n (%)
same,Drug-related TEAE: Decreased appetite,20 mg Q8h (n = 16),1 (6.3) n (%)
same,Drug-related TEAE: Diarrhoea,20 mg Q8h (n = 16),1 (6.3) n (%)
same,Drug-related TEAE: Dysaesthesia,20 mg Q8h (n = 16),1 (6.3) n (%)
same,Drug-related TEAE: Dysgeusia,20 mg Q8h (n = 16),0 n (%)
same,Drug-related TEAE: Electrocardiogram QTc prolonged,20 mg Q8h (n = 16),1 (6.3) n (%)
same,Drug-related TEAE: Fatigue,20 mg Q8h (n = 16),1 (6.3) n (%)
same,Drug-related TEAE: Headache,20 mg Q8h (n = 16),0 n (%)
same,Drug-related TEAE: Hot flush,20 mg Q8h (n = 16),1 (6.3) n (%)
same,Drug-related TEAE: Increased transaminases,20 mg Q8h (n = 16),0 n (%)
same,Drug-related TEAE: Insomnia,20 mg Q8h (n = 16),0 n (%)
same,Drug-related TEAE: Myalgia,20 mg Q8h (n = 16),0 n (%)
same,Drug-related TEAE: Nausea,20 mg Q8h (n = 16),0 n (%)
same,Drug-related TEAE: Peripheral oedema,20 mg Q8h (n = 16),0 n (%)
same,Drug-related TEAE: Rash,20 mg Q8h (n = 16),0 n (%)
same,Drug-related TEAE: Vomiting,20 mg Q8h (n = 16),2 (12.5) n (%)
same,Grade 3 TEAE: Anaemia,20 mg Q8h (n = 16),2 (12.5) n (%)
same,Grade 3 TEAE: Ascites,20 mg Q8h (n = 16),1 (6.3) n (%)
same,Grade 3 TEAE: Asthenia,20 mg Q8h (n = 16),1 (6.3) n (%)
same,Grade 3 TEAE: Dyspnoea,20 mg Q8h (n = 16),0 n (%)
same,Grade 3 TEAE: Electrocardiogram QTc prolonged,20 mg Q8h (n = 16),0 n (%)
same,Grade 3 TEAE: Fatigue,20 mg Q8h (n = 16),1 (6.3) n (%)
same,Grade 3 TEAE: Metastases to the central nervous system,20 mg Q8h (n = 16),1 (6.3) n (%)
same,Patients with any TEAE,20 mg Q8h (n = 16),16 (100.0) Number (%)
same,Patients with any TEAE leading to treatment discontinuation,20 mg Q8h (n = 16),2 (12.5) Number (%)
same,Patients with any serious TEAE,20 mg Q8h (n = 16),7 (43.8) Number (%)
same,Patients with any study drug-related TEAE,20 mg Q8h (n = 16),9 (56.3) Number (%)
same,Patients with ≥ 1 treatment-emergent SAE,20 mg Q8h (n = 16),7 (43.8) n (%)
same,SAE class: Blood and lymphatic system disorders,20 mg Q8h (n = 16),0 n (%)
same,SAE class: Cardiac disorders,20 mg Q8h (n = 16),0 n (%)
same,SAE class: Gastrointestinal disorders,20 mg Q8h (n = 16),1 (6.3) n (%)
same,SAE class: General disorders and administration-site conditions,20 mg Q8h (n = 16),2 (12.5) n (%)
same,SAE class: Hepatobiliary disorders,20 mg Q8h (n = 16),1 (6.3) n (%)
same,SAE class: Infections and infestations,20 mg Q8h (n = 16),1 (6.3) n (%)
same,SAE class: Metabolism and nutrition disorders,20 mg Q8h (n = 16),1 (6.3) n (%)
same,SAE class: Musculoskeletal and connective tissue disorders,20 mg Q8h (n = 16),1 (6.3) n (%)
same,"SAE class: Neoplasms benign, malignant and unspecified (including cysts and polyps)",20 mg Q8h (n = 16),2 (12.5) n (%)
same,SAE class: Nervous system disorders,20 mg Q8h (n = 16),1 (6.3) n (%)
same,"SAE class: Respiratory, thoracic and mediastinal disorders",20 mg Q8h (n = 16),0 n (%)
same,SAE class: Vascular disorders,20 mg Q8h (n = 16),1 (6.3) n (%)
same,SAE: Abdominal pain,20 mg Q8h (n = 16),0 n (%)
same,SAE: Anaemia,20 mg Q8h (n = 16),0 n (%)
same,SAE: Asthenia,20 mg Q8h (n = 16),1 (6.3) n (%)
same,SAE: Basal cell carcinoma,20 mg Q8h (n = 16),1 (6.3) n (%)
same,SAE: Bone pain,20 mg Q8h (n = 16),1 (6.3) n (%)
same,SAE: Deep-vein thrombosis,20 mg Q8h (n = 16),1 (6.3) n (%)
same,SAE: Dehydration,20 mg Q8h (n = 16),1 (6.3) n (%)
same,SAE: Disease progression,20 mg Q8h (n = 16),2 (12.5) n (%)
same,SAE: Dyspnoea,20 mg Q8h (n = 16),0 n (%)
same,SAE: Gastric haemorrhage,20 mg Q8h (n = 16),1 (6.3) n (%)
same,SAE: Gastric ulcer helicobacter,20 mg Q8h (n = 16),0 n (%)
same,SAE: Infection,20 mg Q8h (n = 16),0 n (%)
same,SAE: Lower respiratory tract infection,20 mg Q8h (n = 16),0 n (%)
same,SAE: Mastoiditis,20 mg Q8h (n = 16),1 (6.3) n (%)
same,SAE: Mental impairment,20 mg Q8h (n = 16),1 (6.3) n (%)
same,SAE: Metastases to the central nervous system,20 mg Q8h (n = 16),1 (6.3) n (%)
same,SAE: Pericardial effusion,20 mg Q8h (n = 16),0 n (%)
same,SAE: Pleural effusion,20 mg Q8h (n = 16),0 n (%)
same,SAE: Pneumonia,20 mg Q8h (n = 16),0 n (%)
same,SAE: Portal vein thrombosis,20 mg Q8h (n = 16),1 (6.3) n (%)
same,SAE: Seizure,20 mg Q8h (n = 16),1 (6.3) n (%)
same,SAE: Subarachnoid haemorrhage,20 mg Q8h (n = 16),0 n (%)
same,Total number of TEAEs,20 mg Q8h (n = 16),159
same,Total number of treatment-emergent SAEs,20 mg Q8h (n = 16),14
same,Patients with any AE leading to death,"20 mg Q8h (n = 16), none deemed related to treatment",2 (12.5) Number (%)
same,Drug-related TEAE: Abnormal dreams,40 mg Q8h (n = 31),0 n (%)
same,Drug-related TEAE: Anaemia,40 mg Q8h (n = 31),1 (3.2) n (%)
same,Drug-related TEAE: Asthenia,40 mg Q8h (n = 31),0 n (%)
same,Drug-related TEAE: Constipation,40 mg Q8h (n = 31),2 (6.5) n (%)
same,Drug-related TEAE: Decreased appetite,40 mg Q8h (n = 31),0 n (%)
same,Drug-related TEAE: Diarrhoea,40 mg Q8h (n = 31),0 n (%)
same,Drug-related TEAE: Dysaesthesia,40 mg Q8h (n = 31),0 n (%)
same,Drug-related TEAE: Dysgeusia,40 mg Q8h (n = 31),0 n (%)
same,Drug-related TEAE: Electrocardiogram QTc prolonged,40 mg Q8h (n = 31),3 (9.7) n (%)
same,Drug-related TEAE: Fatigue,40 mg Q8h (n = 31),0 n (%)
same,Drug-related TEAE: Headache,40 mg Q8h (n = 31),0 n (%)
same,Drug-related TEAE: Hot flush,40 mg Q8h (n = 31),0 n (%)
same,Drug-related TEAE: Increased transaminases,40 mg Q8h (n = 31),0 n (%)
same,Drug-related TEAE: Insomnia,40 mg Q8h (n = 31),2 (6.5) n (%)
same,Drug-related TEAE: Myalgia,40 mg Q8h (n = 31),0 n (%)
same,Drug-related TEAE: Nausea,40 mg Q8h (n = 31),1 (3.2) n (%)
same,Drug-related TEAE: Peripheral oedema,40 mg Q8h (n = 31),1 (3.2) n (%)
same,Drug-related TEAE: Rash,40 mg Q8h (n = 31),1 (3.2) n (%)
same,Drug-related TEAE: Vomiting,40 mg Q8h (n = 31),1 (3.2) n (%)
same,Grade 3 TEAE: Anaemia,40 mg Q8h (n = 31),2 (6.5) n (%)
same,Grade 3 TEAE: Ascites,40 mg Q8h (n = 31),0 n (%)
same,Grade 3 TEAE: Asthenia,40 mg Q8h (n = 31),1 (3.2) n (%)
same,Grade 3 TEAE: Dyspnoea,40 mg Q8h (n = 31),0 n (%)
same,Grade 3 TEAE: Electrocardiogram QTc prolonged,40 mg Q8h (n = 31),1 (3.2) n (%)
same,Grade 3 TEAE: Fatigue,40 mg Q8h (n = 31),0 n (%)
same,Grade 3 TEAE: Metastases to the central nervous system,40 mg Q8h (n = 31),1 (3.2) n (%)
same,Patients with any TEAE,40 mg Q8h (n = 31),29 (93.5) Number (%)
same,Patients with any TEAE leading to treatment discontinuation,40 mg Q8h (n = 31),5 (16.1) Number (%)
same,Patients with any serious TEAE,40 mg Q8h (n = 31),12 (38.7) Number (%)
same,Patients with any study drug-related TEAE,40 mg Q8h (n = 31),13 (41.9) Number (%)
same,Patients with ≥ 1 treatment-emergent SAE,40 mg Q8h (n = 31),12 (38.7) n (%)
same,SAE class: Blood and lymphatic system disorders,40 mg Q8h (n = 31),2 (6.5) n (%)
same,SAE class: Cardiac disorders,40 mg Q8h (n = 31),1 (3.2) n (%)
same,SAE class: Gastrointestinal disorders,40 mg Q8h (n = 31),1 (3.2) n (%)
same,SAE class: General disorders and administration-site conditions,40 mg Q8h (n = 31),2 (6.5) n (%)
same,SAE class: Hepatobiliary disorders,40 mg Q8h (n = 31),0 n (%)
same,SAE class: Infections and infestations,40 mg Q8h (n = 31),4 (12.9) n (%)
same,SAE class: Metabolism and nutrition disorders,40 mg Q8h (n = 31),0 n (%)
same,SAE class: Musculoskeletal and connective tissue disorders,40 mg Q8h (n = 31),0 n (%)
same,"SAE class: Neoplasms benign, malignant and unspecified (including cysts and polyps)",40 mg Q8h (n = 31),1 (3.2) n (%)
same,SAE class: Nervous system disorders,40 mg Q8h (n = 31),2 (6.5) n (%)
same,"SAE class: Respiratory, thoracic and mediastinal disorders",40 mg Q8h (n = 31),1 (3.2) n (%)
same,SAE class: Vascular disorders,40 mg Q8h (n = 31),0 n (%)
same,SAE: Abdominal pain,40 mg Q8h (n = 31),1 (3.2) n (%)
same,SAE: Anaemia,40 mg Q8h (n = 31),2 (6.5) n (%)
same,SAE: Asthenia,40 mg Q8h (n = 31),0 n (%)
same,SAE: Basal cell carcinoma,40 mg Q8h (n = 31),0 n (%)
